Data reported in US20040254162A1, “Oxazolidinone derivatives as antimicrobials” (priority 2001, published 2004).
Values after ≈ are worked out from the molar mass of the structure shown.

How the values were obtained:
[1] = Changes in MIC under different conditions: agar MIC; assay type: cell-based; details: strain not given
[2] = Changes in MIC under different conditions: broth MIC; assay type: cell-based; details: strain not given
MRSA 562 = test: In vivo activity against MRSA 562 (ED50); set-up: species or system Methicillin Resistant Staphylococcus aureus; details: PO; MRSA 562 infection
anaerobic bacteria = test: Agar dilution method for anaerobic bacteria, summary; assay type: cell-based
Clostridium camis = test: Agar dilution MIC, anaerobes; assay type: cell-based; details: Clostridium; single isolates, anaerobic agar dilution; read-out: MIC Clostridium camis
Clostridium perfringens = test: microbe, parasite or virus in culture; assay type: cell-based; details: Clostridium perfringens, read-out: MIC Clostridium perfringens, single isolates, anaerobic agar dilution
Clostridium difficile = test: Agar dilution MIC, anaerobes; assay type: cell-based; details: Clostridioides difficile, single isolates, anaerobic agar dilution; read-out: MIC Clostridium difficile
[3] = system: Prevotella (Bacteroides) disiens; test: Agar dilution MIC, anaerobes; assay type: cell-based; details: single isolates, anaerobic agar dilution; read-out: MIC Prevotella (Bacteroides) disiens
Prevotella bivia = test: Agar dilution MIC, anaerobes; assay type: cell-based; details: Prevotella bivia; single isolate, anaerobic agar dilution; read-out: MIC Prevotella bivia
[4] = system: Prevotella melaninogenica; test: Agar dilution MIC, anaerobes; assay type: cell-based; details: single isolates, anaerobic agar dilution
[5] = system: Porphyromonas asaccharolytica; test: Agar dilution MIC, anaerobes; assay type: cell-based; details: Porphyromonas asaccharolytica; single isolate, anaerobic agar dilution; read-out: MIC Porphyromonas asaccharolytica
Fusobacterium montiferum = test: Agar dilution MIC, anaerobes; assay type: cell-based; details: Fusobacterium, single isolates, anaerobic agar dilution; read-out: MIC Fusobacterium montiferum
Fusobacterium nucleatum = test: Agar dilution MIC, anaerobes; assay type: cell-based; details: single isolates, anaerobic agar dilution
Fusobacterium varium = test: Agar dilution MIC, anaerobes; assay type: cell-based; details: Fusobacterium varium, single isolates, anaerobic agar dilution; read-out: MIC Fusobacterium varium
P. acnes = test: Agar dilution MIC, anaerobes; assay type: cell-based; details: Cutibacterium acnes, single isolates, anaerobic agar dilution; read-out: MIC P. acnes
[6] = system: Peptostreptococcus tetradius; test: Agar dilution MIC, anaerobes; assay type: cell-based; details: Anaerococcus tetradius, single isolates, anaerobic agar dilution; read-out: MIC Peptostreptococcus tetradius
[7] = system: Peptostreptococcus prevotii; test: Agar dilution MIC, anaerobes; assay type: cell-based; details: Anaerococcus prevotii, single isolates, anaerobic agar dilution; read-out: MIC Peptostreptococcus prevotii
Eubacterium leutum = test: Agar dilution MIC, anaerobes; assay type: cell-based; details: Eubacterium, single isolates, anaerobic agar dilution; read-out: MIC Eubacterium leutum
[8] = system: Mycobacterium avium intracellulare; test: Agar dilution method, mycobacteria; assay type: cell-based
[9] = system: Mycobacterium tuberculosis
[10] = in vivo; cited from earlier work
S. aureus ATCC 25923 = test: MIC, agar incorporation method; details: Staphylococcus aureus, ATCC25923, read-out: MIC S. aureus 25923
MRSA 33 = test: MIC, agar incorporation method; details: Staphylococcus aureus, MRSA, read-out: MIC MRSA 33
Ent. faecalis ATCC 29212 = test: MIC, agar incorporation method; details: Enterococcus faecalis, ATCC29212, read-out: MIC E. faecalis 29212
VRE 6A (Ent. faecium 6A) = test: MIC, agar incorporation method; details: Enterococcus, VRE, read-out: MIC VRE 6A
Strep. pyog. ATCC 19615 = test: MIC, agar incorporation method; details: Streptococcus pyogenes, ATCC19615, read-out: MIC S. pyogenes 19615
Strep. pne. ATCC 6303 = test: MIC, agar incorporation method; details: Streptococcus pneumoniae, ATCC6303, read-out: MIC S. pneum 6303
S. pneum AB 34 = test: MIC, agar incorporation method; details: Streptococcus pneumoniae, AB34, read-out: MIC S. pneum AB 34
G +ve bacteria = test: Summary of in vitro activity (MIC)
S. aureus = test: Summary of in vitro activity (MIC); details: Staphylococcus aureus
E. faecalis = test: Summary of in vitro activity (MIC); details: Enterococcus faecalis
S. pneumoniae = test: Summary of in vitro activity (MIC); details: Streptococcus pneumoniae
[11] = system: MRSE 879 adherent bacteria; test: Sintered glass adherent bacteria model; details: MRSE 879, sintered glass adherent bacteria model
[12] = read-out: Geometric Mean of in vitro activity (MIC)

In the case of `CC(=O)NC[C@H]1CN(c2ccc(N3CCOCC3)c(F)c2)C(=O)O1` [Linezolid], the “Agar MIC” value [1] is reported as 2 µg/mL, the “Broth MIC +50% Sheep serum” value ([2]; +50% sheep serum) is reported as 2 µg/mL and the “Broth MIC Normal MH broth” value ([2]; normal MH broth) is reported as 1 µg/mL. For the same compound, the “ED50 (mg/kg body weight) PO” value (MRSA 562) was 4.56 mg/kg body weight, the MIC50 (anaerobic bacteria; 48 h) was 1 µg/mL (≈ 2.96 µM) and the MIC90 (anaerobic bacteria; 48 h) was 4 µg/mL (≈ 11.9 µM). The “Geometric Mean” value (anaerobic bacteria; anaerobes) was 1.134 µg/mL, the “MIC Range” value (anaerobic bacteria; anaerobes) was 0.25 to 4 µg/mL and the MIC (Clostridium camis) was 2 µg/mL (≈ 5.93 µM). It also gave an MIC (Clostridium perfringens) of 2 µg/mL (≈ 5.93 µM), an MIC (Clostridium difficile) of 2 µg/mL (≈ 5.93 µM) and an MIC [3] of 4 µg/mL (≈ 11.9 µM). The MIC (Prevotella bivia) was 1 µg/mL (≈ 2.96 µM), the MIC ([4]; Prevotella melaninogenica, read-out: MIC Prevotella melaninogenica) was 1 µg/mL (≈ 2.96 µM) and the “MIC Prevotella melaninogenica” value [4] was 2 µg/mL (≈ 5.93 µM). It also gave an MIC [5] of 1 µg/mL (≈ 2.96 µM), an MIC (Fusobacterium montiferum) of 0.25 µg/mL (≈ 0.741 µM) and an MIC (Fusobacterium nucleatum; Fusobacterium nucleatum, read-out: MIC Fusobacterium nucleatum) of 0.5 µg/mL (≈ 1.48 µM). The “MIC Fusobacterium nucleatum” value (Fusobacterium nucleatum) was 1 µg/mL (≈ 2.96 µM), the MIC (Fusobacterium varium) was 1 µg/mL (≈ 2.96 µM) and the MIC (P. acnes) was 0.5 µg/mL (≈ 1.48 µM). For the same compound, the MIC [6] was 0.5 µg/mL (≈ 1.48 µM), the MIC [7] was 0.5 µg/mL (≈ 1.48 µM) and the MIC (Eubacterium leutum) was 1 µg/mL (≈ 2.96 µM). For the same compound, the G.M. [8] was 20.587 µg/mL, the MIC50 ([8]; Mycobacterium avium, 504 h, Middlebrook 7H10 agar, 21 days, read-out: MIC50) was 16 µg/mL (≈ 47.4 µM) and the MIC90 ([8]; Mycobacterium avium, 504 h, Middlebrook 7H10 agar, 21 days, read-out: MIC90) was 64 µg/mL (≈ 190 µM). The G.M. [9] was 8 µg/mL, the Cmax [10] was 12000 to 16000 ng/mL and the MIC (S. aureus ATCC 25923) was 2 µg/mL (≈ 5.93 µM). The MIC (MRSA 33) was 2 µg/mL (≈ 5.93 µM), the MIC (Ent. faecalis ATCC 29212) was 2 µg/mL (≈ 5.93 µM) and the MIC (VRE 6A (Ent. faecium 6A)) was 2 µg/mL (≈ 5.93 µM). The MIC (Strep. pyog. ATCC 19615) was 2 µg/mL (≈ 5.93 µM), the MIC (Strep. pne. ATCC 6303) was 2 µg/mL (≈ 5.93 µM) and the MIC (S. pneum AB 34) was 4 µg/mL (≈ 11.9 µM). For the same compound, the MIC50 (G +ve bacteria) was 2 µg/mL (≈ 5.93 µM), the MIC90 (G +ve bacteria) was 4 µg/mL (≈ 11.9 µM) and the MIC50 (S. aureus) was 2 µg/mL (≈ 5.93 µM). For the same compound, the MIC90 (S. aureus) was 4 µg/mL (≈ 11.9 µM), the MIC (S. aureus; [12]) was 2.38 µg/mL (≈ 7.05 µM) and the MIC50 (E. faecalis) was 4 µg/mL (≈ 11.9 µM). The MIC90 (E. faecalis) was 16 µg/mL (≈ 47.4 µM), the MIC (E. faecalis; [12]) was 4 µg/mL (≈ 11.9 µM) and the MIC50 (S. pneumoniae) was 0.5 µg/mL (≈ 1.48 µM). The MIC90 (S. pneumoniae) was 2 µg/mL (≈ 5.93 µM), the MIC (S. pneumoniae; [12]) was 0.6 µg/mL (≈ 1.78 µM) and the “concentration which would kill adherent bacteria” value [11] was 32 µg/mL.
